Measured values from patent US20090087845A1, “Genetic Markers Of True Low Birth Weight” (priority 2005, published 2009).
Where “and” joins values, the source holds several entries; their conditions need not be identical. Equal values may be shown once.

Test system: placental gene expression
Assay: Placental gene expression (Affymetrix Rat Genome Chip 230.2) after SSRI (fluoxetine) exposure throughout gestation
Format: in vivo
Conditions: placenta, SSRI-exposed samples
Method: Gene expression data from pregnant rats under different forms of dietary restriction was gathered. […] (N=8) • Group 2 (CR50): Rats Given 50% of their Normal Daily Intake of Food. (N=5) • Group 3 (CR70): Rats Given 70% of their Normal Daily Intake of Food. […] (N=6) Placentas from the rats of each Group were harvested on Day 21 of gestation. RNA was extracted and gene expression was measured based on hybridization of RNA to Affymetrix Rat Genome Chips™ (230.2) (Affymetrix, Santa Clara, Calif.).
In order to determine whether placental gene expression profiling can be used to identify other prenatal exposures such as toxicants and drugs, a group of rats with drug exposure was monitored as described above. […] As with control, CR50, CR70, and HF groups, placentas from the mothers were sampled after 21 days of gestation and gene expression monitored utilizing an Affymetrix Rat Genome Chip.

SMILES: CNCCC(Oc1ccc(C(F)(F)F)cc1)c1ccccc1 (stereo not shown) [fluoxetine, Fluoxetine]
- expression, probeset 1384527_at: 5 and 5.16 and 4.806 and 4.891 and 4.944 and 4.995
- expression, probeset 1384528_at: 7.1 and 7.424 and 7.73 and 8.04 and 7.505 and 7.682
- expression, probeset 1384641_at: 5.867 and 5.877 and 5.784 and 5.513 and 5.517 and 5.626
- expression, probeset 1384849_at: 4.659 and 4.629 and 5.174 and 5.223 and 4.879 and 4.92
- expression, probeset 1384923_at: 6.977 and 7.2 and 6.818 and 6.939 and 6.837 and 6.982
- expression, probeset 1385137_at: 6.326 and 6.421 and 6.154 and 5.912 and 6.02 and 6.248
- expression, probeset 1385163_at: 6.063 and 5.993 and 6.045 and 5.955 and 5.885 and 6.124
- expression, probeset 1385336_at: 4.379 and 4.499 and 4.426 and 4.399 and 4.645 and 4.457
- expression, probeset 1385442_at: 7.16 and 7.404 and 6.997 and 6.879 and 6.92 and 6.943
- expression, probeset 1385518_at: 6.937 and 6.773 and 6.99 and 6.986 and 7.076 and 6.76
- expression, probeset 1385535_at: 4.02 and 3.842 and 4.063 and 4.09 and 4.042 and 4.166
- expression, probeset 1385652_at: 7.797 and 7.898 and 7.543 and 7.484 and 7.575 and 7.378
- expression, probeset 1385676_at: 8.114 and 8.061 and 8.462 and 8.533 and 8.039 and 8.344
- expression, probeset 1385698_at: 3.878 and 3.859 and 3.777 and 3.605 and 3.7424 and 3.746
- expression, probeset 1385760_at: 7.137 and 7.354 and 6.648 and 7.09 and 7.316 and 7.321
- expression, probeset 1385775_at: 4.145 and 4.375 and 3.896 and 3.993 and 4.079 and 4.161
- expression, probeset 1386125_at: 6.311 and 6.381 and 6.134 and 6.261 and 6.055 and 6.325
- expression, probeset 1386158_at: 4.004 and 4.128 and 4.063 and 4.152 and 3.988 and 3.931
- expression, probeset 1386414_at: 6.861 and 7.196 and 6.932 and 7.199 and 7.249 and 7.033
- expression, probeset 1386519_x_at: 7.188 and 7.295 and 7.082 and 7.038 and 7.203 and 7.126
- expression, probeset 1387083_at: 5.565 and 6.278 and 5.686 and 5.781 and 5.789 and 5.938
- expression, probeset 1387136_at: 6.691 and 6.697 and 6.593 and 6.718 and 6.67 and 6.537
- expression, probeset 1387406_at: 6.01 and 6.243 and 5.981 (2×) and 5.916 and 6.087
- expression, probeset 1387459_at: 3.484 and 3.639 and 3.932 and 3.86 and 3.992 and 3.799
- expression, probeset 1387764_at: 5.733 and 5.268 and 5.537 and 5.549 and 5.494 and 5.603
- expression, probeset 1387899_at: 5.335 and 5.408 and 5.339 and 5.026 and 4.958 and 5.215
- expression, probeset 1387912_at: 8.618 and 8.518 and 8.718 and 9.05 and 9.01 and 8.757
- expression, probeset 1388037_at: 4.856 and 4.68 and 4.647 and 4.894 and 4.953 and 4.682
- expression, probeset 1388091_at: 4.362 and 4.794 and 4.302 and 4.133 and 4.449 and 4.329
- expression, probeset 1388390_at: 10.86 and 10.87 and 11.34 and 11.8393 and 11.4165 and 11.4451
- expression, probeset 1388396_at: 8.176 and 7.836 and 8.032 and 8.018 and 7.774 and 8.067
- expression, probeset 1388447_at: 7.564 and 7.841 and 7.682 and 7.537 and 7.38 and 7.532
- expression, probeset 1388486_at: 7.701 and 7.565 and 7.723 and 7.751 and 7.921 and 7.749
- expression, probeset 1388781_at: 5.825 and 6.004 and 5.674 and 5.735 and 5.979 and 5.673
- expression, probeset 1388938_at: 9.061 and 9.268 and 8.805 and 8.994 and 8.728 and 9.107
- expression, probeset 1389095_at: 5.489 and 5.217 and 5.112 and 5.397 and 5.478 and 5.073
- expression, probeset 1389431_at: 6.558 and 6.3 and 6.381 and 6.49 and 6.951 and 6.471
- expression, probeset 1389551_at: 8.862 and 8.606 and 8.909 and 8.801 and 8.621 and 8.842
- expression, probeset 1389664_at: 7.741 and 8.146 and 7.529 and 7.949 and 7.982 and 7.952
- expression, probeset 1389835_at: 4.064 and 3.784 and 4.093 and 4.045 (2×) and 4.18
- expression, probeset 1389917_at: 5.998 and 5.507 and 6.012 and 5.987 and 5.908 and 5.888
- expression, probeset 1389938_at: 3.638 and 3.579 and 3.678 and 3.837 and 3.753 and 3.593
- expression, probeset 1390090_at: 7.476 and 7.464 and 7.498 and 7.393 and 7.3 and 7.578
- expression, probeset 1390259_at: 4.304 and 4.546 and 4.677 and 4.255 and 4.358 and 4.411
- expression, probeset 1390464_at: 5.625 and 5.847 and 5.541 and 5.807 and 5.983 and 5.83
- expression, probeset 1390534_at: 6.478
- expression, probeset 1390603_at: 6.467 and 6.868 and 6.527 and 6.621 and 6.242 and 6.674
- expression, probeset 1390649_at: 7.28 and 7.575 and 6.821 and 7.034 and 7.132 and 6.938
- expression, probeset 1390892_at: 5.112 and 5.3382 and 4.891 and 5.21 and 4.944 and 5.358
